Measured values: publication PMC10155127 (Nature microbiology, 2022)

Tested on: E. coli ATCC 25922
Test: Time-dependent killing
Format: cell-based
Conditions: antibiotic at 4x MIC

Compound: CC1(C)S[C@@H]2[C@H](NC(=O)[C@H](N)c3ccccc3)C(=O)N2[C@H]1C(=O)O [Ampicillin, ampicillin]
- c.f.u. in time-dependent killing: fell below the limit of detection
